From publication PMC5750648, “Study of Statin- and Loratadine-Induced Muscle Pain Mechanisms Using Human Skeletal Muscle Cells” (Pharmaceutics, 2017)
“Also recorded” adds a separate entry of the source. Counter-ions that a name gives are not always drawn. One block for each compound: values may come before it.

Tests used:
[1] = set-up: method as in PMID 16453090; conditions: Primo study; cited from earlier work
[2] = tested on: L-lactic acid influx transport in SkMC; test: Kinetic parameters of L-lactic acid influx transport in SkMC; type: cell-based, human
Procedure: After differentiation, and before the beginning of the transport experiments, cells were washed, and the medium replaced with HEPES (pH 7.4; 1 mL) buffer. Transport assays, including the pre-incubation period in HEPES, were performed at 37 °C. Assay conditions were previously optimized by standard incubations with L-lactic acid (e.g., incubation times). […] Assessment of influx transport. […] The suspension was passed through 27½ G needle 3-times. […] L-lactic acid concentrations.

SkMC = test: Intracellular concentrations of statins and loratadine at the end of inhibition assays (HPLC-UV)
Procedure: Instruments used consisted of a SpectraSystem P4000 pump, a SpectraSystem AS3000 autosampler, a Finnigan SpectraSystem UV6000 ultraviolet detector and a SpectraSystem SN4000 System Controller from Thermo Electron Corporation (San Jose, CA, USA). An Agilent Zorbax Column, Eclipse XDB-C8, 4.6 mm × 150 mm (Agilent, Santa Clara, CA, USA) was used at a temperature of 40 °C. An isocratic mobile phase contained 10 mM ammonium formate pH 3 and acetonitrile with varying proportions, at a flow rate of 1.0 mL/min. Details for mobile phase proportions, internal standards and monitored UV wavelengths are listed in Supplementary Table S1.
After the final incubation, cells were washed twice with PBS 10% methanol and once with PBS alone. The cells were lysed with methanol containing appropriate internal standards for the compounds of interest, then transferred and centrifuged for 10 min at room temperature. The supernatant was transferred to a culture borosilicate glass tube, evaporated and reconstituted in 100 µL of 10 mM ammonium formate pH 3 and acetonitrile (50:50 v/v). A volume of 20 µL per sample was injected. The ChromQuest Version 4.2.34 software was used for data acquisition.

[3] = tested on: MCT-mediated efflux transport of L-lactic acid (MCT1 and 4); test: L-lactic acid efflux inhibition after six-day pretreatment of SkMC; type: cell-based, human; conditions: inhibitor 300 µM
Procedure: At the beginning of the experiment (t = 0), medium was replaced by HEPES (pH 7.4; 1 mL) buffer to wash cells. […] Then, cells were washed once rapidly with buffer containing the tested inhibitors or vehicle, but without L-lactic acid. […] Culture plates were placed on ice to stop the reaction. Inhibition of L-lactic acid efflux was determined by measuring intracellular [^14C] L-lactic acid concentration.

[4] = tested on: MCT-mediated efflux transport of L-lactic acid (MCT1 and 4); test: Inhibition of L-lactic acid efflux in SkMC (intracellular [14C] L-lactic acid accumulation); type: cell-based, human; conditions: for Inhibitory effect on L-lactic acid efflux (in words): 0.25 to 300 µM
Procedure: Assessment of efflux transport. A similar approach was used to measure efflux transport of L-lactic acid. For these experiments, distribution equilibrium of L-lactic acid was reached by adding MES or HEPES (pH 7.0 or 7.4; 1 mL) containing 6 mM [^14C] L-lactic acid (0.2 µCi/mL). After 10 min (to allow L-lactic acid to reach equilibrium), MES or HEPES buffer containing [^14C] L-lactic acid was replaced by L-lactic acid-free buffer for 2.5 min. Transport was stopped by placing culture plates on ice, rapidly aspirating the media and cells were washed 3-times with ice-cold HEPES buffer. Cellular radioactivity levels were determined as previously described in the Method section (Assessment of influx transport).
At the beginning of the experiment (t = 0), medium was replaced by HEPES (pH 7.4; 1 mL) buffer to wash cells. After removing the wash buffer, cells were loaded with [^14C] L-lactic acid (6 mM, 0.2 µCi/mL) in MES or HEPES buffer (pH 7.0 or pH 7.4). Briefly, following pre-incubation of cells in buffer containing [^14C] L-lactic acid for 10 min (to allow L-lactic acid to reach equilibrium), the buffer was replaced by a buffer containing [^14C] L-lactic acid and the potential inhibitor. This mixture was incubated for an additional 3 min in order to allow diffusion of the inhibitor in the cells without perturbing L-lactic acid equilibrium. Then, cells were washed once rapidly with buffer containing the tested inhibitors or vehicle, but without L-lactic acid. In the final step, the tested inhibitors or vehicle were added to the L-lactic acid-free buffer and incubated for 2.5 min as described previously for the assessment of the efflux transport. Culture plates were placed on ice to stop the reaction. Inhibition of L-lactic acid efflux was determined by measuring intracellular [^14C] L-lactic acid concentration.

SMILES: CC(C)c1c(C(=O)Nc2ccccc2)c(-c2ccccc2)c(-c2ccc(F)cc2)n1CC[C@@H](O)C[C@@H](O)CC(=O)O [Atorvastatin]
Rate of patients experiencing muscular discomfort [1]: 14.9%

Km ([2]; pH 7.0): 17 mM
Km ([2]; pH 7.4): 23 mM
SMILES: C[C@H](O)C(=O)O [L-lactic acid, L-lactic acid sodium salt]
Vmax of L-lactic acid influx transport ([2]; pH 7.0): 90 nmol/min/mg protein
Vmax of L-lactic acid influx transport ([2]; pH 7.4): 82 nmol/min/mg protein

Effect of pH on intracellular accumulation of the drug (SkMC; SkMC, pH 7.0 compared to pH 7.4): did not affect
SMILES: CCOC(=O)N1CCC(=C2c3ccc(Cl)cc3CCc3cccnc32)CC1 [Loratadine]

SMILES: CCC(C)(C)C(=O)O[C@H]1C[C@@H](C)C=C2C=C[C@H](C)[C@H](CC[C@@H](O)C[C@@H](O)CC(=O)O)[C@H]21 [Simvastatin hydroxy acid, simvastatin hydroxyl acid ammonium salt]
Intracellular L-Lactic Acid Increase (%) ([3]; no pretreatment (Control), pH 7.4): 65%
Intracellular L-Lactic Acid Increase (%) ([3]; six-day pretreatment 0.033 µM, pH 7.0): 103%
Intracellular L-Lactic Acid Increase (%) ([3]; six-day pretreatment 0.033 µM, pH 7.4): 51%
Intracellular L-Lactic Acid Increase (%) ([3]; six-day pretreatment 0.1 µM, pH 7.0): 31%
Intracellular L-Lactic Acid Increase (%) ([3]; six-day pretreatment 0.1 µM, pH 7.4): 35%
Intracellular lactic acid increase ([4]; SkMC (abstract)): 25–35%
Maximal increase of intracellular L-lactic acid ([4]; SkMC, 300 µM inhibitor): 35%
Inhibitory effect on L-lactic acid efflux (in words) ([4]; SkMC): weak inhibitory potency

SMILES: O=C(CCc1ccc(O)cc1)c1c(O)cc(O)cc1O [phloretin]
Maximal intracellular L-lactic acid augmentation ([4]; SkMC, pH 7.0, 1 to 300 µM tested): 2.1 fold
Maximal intracellular L-lactic acid augmentation ([4]; SkMC, pH 7.4, 1 to 300 µM tested): 2.2 fold

Uptake of the drug in SkMC (SkMC): did not have a significant uptake
SMILES: CC(C)c1nc(N(C)S(C)(=O)=O)nc(-c2ccc(F)cc2)c1/C=C/[C@@H](O)C[C@@H](O)CC(=O)O [rosuvastatin]
Inhibitory effect on L-lactic acid efflux (in words) ([4]; SkMC): No L-lactic acid efflux inhibition; also recorded: No significant inhibitory effect
Inhibitory effect on L-lactic acid transport (in words) ([4]; SkMC, pH 7.0): no significant inhibitory effect
